Measurements from PMC8568920, “Serum apolipoprotein A-I potentiates the therapeutic efficacy of lysocin E against Staphylococcus aureus” (Nature Communications, 2021).
Converted amounts (≈) assume the structure as drawn. Where a SMILES comes first, the peptide text is derived from it. Bridges are numbered along the chain shown (N, C = ends). [ ]: non-standard residue; d: D form. The star is where a group is joined. Hexanoyl(3R-OH,5-Me) = CC(C)C[C@@H](O)CC(=O)*; dNMeF = CN[C@H](Cc1ccccc1)C(=O)O

How the values were obtained:
MRSA = experiment: microbe, parasite or virus in culture
Procedure: (§1) The antimicrobial activities of the compounds were measured using the microdilution method. Measurement of the bactericidal activity of lysocin E (0.25 µg ml^−1) and nisin (2 µg ml^−1) with or without ApoA-I was performed according to the National Committee for Clinical Laboratory Standards method. […] For the ∆menA and ∆menB strains, TSB medium was used instead of cation-adjusted-Mueller Hinton broth (CA-MHB) in the microdilution method. Sera and ApoA-I, II were added to the bacterial culture before distributing them into 96-well plates. ApoA-I and ApoA-II antimicrobial activity were evaluated using the RN4220 strain. The protein binding rate of lysocin E against human plasma was determined by a rapid equilibrium dialysis device (Thermo Fisher Scientific, Waltham, MA, USA) according to the manufacturer’s instructions.

in vitro = settings: human plasma
Procedure: as §1

Bacillus cereus JCM20037 = test system: Bacillus cereus JCM20037
Procedure: as §1

[1] = test system: Bacillus subtilis JCM2499
Procedure: as §1

[2] = test system: S. aureus (MRSA) JE2 (USA300)
Procedure: as §1

[3] = test system: S. aureus (MRSA) MR1 (Clinical isolate)
Procedure: as §1

[4] = test system: S. aureus (MRSA) MR2 (Clinical isolate)
Procedure: as §1

[5] = test system: S. aureus (MRSA) MR4 (Clinical isolate)
Procedure: as §1

[6] = test system: S. aureus (MRSA) MR5 (Clinical isolate)
Procedure: as §1

[7] = test system: S. aureus (MRSA) MR6 (Clinical isolate)
Procedure: as §1

S. aureus (MRSA) MRSA4 = test system: S. aureus (MRSA) MRSA4
Procedure: as §1

S. aureus Newman = test system: S. aureus Newman
Procedure: as §1

[8] = test system: S. aureus Smith ATCC13709
Procedure: as §1

[9] = test system: Staphylococcus haemolyticus JCM2416
Procedure: as §1

[10] = test system: Staphylococcus pseudintermedius JCM17571
Procedure: as §1

rhApoA-I ∆NM = molecular target: T1, rhApoA-I ∆NM (Homo sapiens, UniProt P02647, DEL170-184); experiment: Bio-layer interferometry, binding to rhApoA-I ∆NM variant; settings: BLI; biotinylated lysocin E on streptavidin biosensor; 2.5 µM protein
T1 construct: 1 65 146 160 185 243; made in house; host or cells: E. coli BL21(DE3)/pLysS, pET20b (pET-hApo∆NM)
T1 sequence (P02647 with tags, fused parts or gaps DEL170-184): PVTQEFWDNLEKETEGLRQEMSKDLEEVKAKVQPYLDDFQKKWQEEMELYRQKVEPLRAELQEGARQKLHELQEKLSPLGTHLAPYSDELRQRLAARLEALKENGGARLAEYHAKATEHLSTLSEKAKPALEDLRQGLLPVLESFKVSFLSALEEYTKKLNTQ
Procedure: Bio-layer interferometry (BLI) measurements were performed on a BLItz system (ForteBio, Fremont, CA, USA) maintained at room temperature. Kinetic analyses were performed using BLItz Pro ver. 1.2.1.5 (ForteBio). The biotinylated ligand, diluted to 0.1 mg ml^−1 in BLItz buffer (0.05% [v/v] Tween-20 in PBS), was immobilised on a streptavidin biosensor and the kinetic analysis was performed by running BLItz buffer for 300 s each, in the presence and absence of analyte for association and dissociation, respectively. Biotinylated menaquinone (5) and biotinylated lysocin E derivatives (3 and 4) were synthesised as described in the Supplementary Information (Supplementary Figs. 7–15).

Antimicrobial activity (MIC) (MRSA): 4 µg/mL | MIC in 10% bovine serum (MRSA): 0.063 µg/mL (≈ 0.0389 µM) | fraction unbound (in vitro): < 0.01 | MIC of lysocin E, Serum 0% (A) (Bacillus cereus JCM20037): 2 µg/mL | MIC of lysocin E, Serum 10% (B) (Bacillus cereus JCM20037): 0.50 µg/mL | MIC of lysocin E, Serum 0% (A) [1]: 2 µg/mL | MIC of lysocin E, Serum 10% (B) [1]: 0.25 µg/mL | MIC of lysocin E, Serum 0% (A) [2]: 4 µg/mL | MIC of lysocin E, Serum 10% (B) [2]: 0.13 µg/mL | MIC of lysocin E, Serum 0% (A) [3]: 4 µg/mL | MIC of lysocin E, Serum 10% (B) [3]: 0.13 µg/mL | MIC of lysocin E, Serum 0% (A) [4]: 2 µg/mL | MIC of lysocin E, Serum 10% (B) [4]: 0.13 µg/mL | MIC of lysocin E, Serum 0% (A) [5]: 4 µg/mL | MIC of lysocin E, Serum 10% (B) [5]: 0.13 µg/mL | MIC of lysocin E, Serum 0% (A) [6]: 4 µg/mL | MIC of lysocin E, Serum 10% (B) [6]: 0.13 µg/mL | MIC of lysocin E, Serum 0% (A) [7]: 4 µg/mL | MIC of lysocin E, Serum 10% (B) [7]: 0.13 µg/mL | MIC of lysocin E, Serum 0% (A) (S. aureus (MRSA) MRSA4): 4 µg/mL | MIC of lysocin E, Serum 10% (B) (S. aureus (MRSA) MRSA4): 0.25 µg/mL | MIC of lysocin E, Serum 0% (A) (S. aureus Newman): 4 µg/mL | MIC of lysocin E, Serum 10% (B) (S. aureus Newman): 0.13 µg/mL | MIC of lysocin E, Serum 0% (A) [8]: 2 µg/mL | MIC of lysocin E, Serum 10% (B) [8]: 0.063 µg/mL | MIC of lysocin E, Serum 0% (A) [10]: 4 µg/mL | MIC of lysocin E, Serum 10% (B) [10]: 0.13 µg/mL | Kd (rhApoA-I ∆NM): 5.6 µM
Structure (SMILES): CC[C@H](C)[C@@H]1NC(=O)[C@@H](Cc2c[nH]c3ccccc23)NC(=O)[C@@H](CCC(N)=O)NC(=O)[C@H](CCC(=O)O)NC(=O)[C@@H](CCCNC(=N)N)NC(=O)[C@H](CC(C)C)NC(=O)[C@@H](Cc2ccccc2)N(C)C(=O)CNC(=O)[C@H](CO)NC(=O)[C@@H](CCCNC(=N)N)NC(=O)[C@@H](NC(=O)C[C@H](O)CC(C)C)[C@@H](C)OC(=O)[C@H]([C@@H](C)O)NC1=O [Lysocin E, lysocin E] ({Hexanoyl(3R-OH,5-Me)}-T[dR]SG[dNMeF]L[dR]E[dQ][dW]IT; ester 1-C)
MIC of lysocin E, Serum 0% (A) [9]: 2 µg/mL | MIC of lysocin E, Serum 10% (B) [9]: 0.0078 µg/mL
